Here are results for two compounds from patent US7592457B2 (Korea Research Institute of Chemical Technology, priority 2004, dated 2009).

Each structure is given as a SMILES string.

Data set [1] relates to rat maximal electroseizure threshold. Conditions: literature; cited from earlier work.
Data set [2] has as its system rats. The following applies: literature; cited from earlier work.
Data set [3] deals with rats. Conditions: literature; cited from earlier work. The source holds these as a separate data set.
The next data set deals with D1 (Homo sapiens, UniProt P21728). The experiment in a line: Radioligand binding for selectivity, D1. The following applies: read-out: Binding affinity (Inhibition rate % at 10 μM) D1.
Another data set has as its target T1, hD2L receptor (Homo sapiens, UniProt P14416).
T1 construct: purchased BioSignal Packard Inc., Montreal, Canada
As to the kind of experiment: Radioligand binding, dopamine D2 ([3H]spiperone). Conditions: read-out: Binding affinity (Inhibition rate % at 10 μM) D2.

The next data set has as its target T2, hD3 receptor (Homo sapiens, UniProt P35462).
T2 construct: purchased BioSignal Packard Inc., Montreal, Canada
As to the kind of experiment: Radioligand binding, dopamine D3 ([3H]spiperone). Conditions: read-out: Binding affinity (Inhibition rate % at 10 μM) D3.

Another data set concerns the target T3, hD4.2 receptor (Homo sapiens, UniProt P21917, DEL265-296).
T3 construct: purchased BioSignal Packard Inc., Montreal, Canada
T3 sequence (P21917 with tags, fused parts or gaps DEL265-296): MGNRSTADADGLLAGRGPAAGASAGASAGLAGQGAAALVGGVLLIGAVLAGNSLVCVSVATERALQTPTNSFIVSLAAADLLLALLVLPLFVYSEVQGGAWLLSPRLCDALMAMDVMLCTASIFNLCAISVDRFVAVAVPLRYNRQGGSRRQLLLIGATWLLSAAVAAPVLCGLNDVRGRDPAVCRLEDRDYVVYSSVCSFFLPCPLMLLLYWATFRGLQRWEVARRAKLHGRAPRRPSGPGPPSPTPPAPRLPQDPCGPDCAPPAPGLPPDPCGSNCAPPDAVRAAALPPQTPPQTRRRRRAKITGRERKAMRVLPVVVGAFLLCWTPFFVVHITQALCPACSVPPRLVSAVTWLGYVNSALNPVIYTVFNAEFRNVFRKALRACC
The experiment in a line: Radioligand binding, dopamine D4 ([3H]YM-09151-2). The following applies: read-out: Binding affinity (Inhibition rate % at 10 μM) D4.

The next data set deals with T4, 5-HT1a (Homo sapiens, UniProt P08908).
T4 construct: purchased Euroscreen/BioSignal Packard Inc
T4 sequence (P08908 1-422): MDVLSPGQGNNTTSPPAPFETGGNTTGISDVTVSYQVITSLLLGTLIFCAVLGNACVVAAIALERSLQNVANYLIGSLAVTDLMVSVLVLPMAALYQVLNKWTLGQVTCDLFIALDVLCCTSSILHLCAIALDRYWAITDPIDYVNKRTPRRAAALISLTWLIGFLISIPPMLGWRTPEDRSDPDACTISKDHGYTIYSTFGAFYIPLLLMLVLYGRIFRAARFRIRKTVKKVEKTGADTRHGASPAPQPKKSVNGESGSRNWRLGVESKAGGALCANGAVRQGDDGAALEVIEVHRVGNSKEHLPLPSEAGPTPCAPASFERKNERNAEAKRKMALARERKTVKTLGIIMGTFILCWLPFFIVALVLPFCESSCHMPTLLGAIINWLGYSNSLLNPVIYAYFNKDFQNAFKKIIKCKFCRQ
As to the kind of experiment: Radioligand binding, 5-HT1a ([3H]8-OH-DPAT). Conditions: read-out: Binding affinity (Inhibition rate % at 10 μM) 5HT1a. As to the method:
(§1) Radioligand bindings were performed according to the test method provided by the supplier of receptor membrane (Euroscreen/BioSignal Packard Inc.).

A further data set concerns the target T5, 5-HT2a (Homo sapiens, UniProt P28223).
T5 construct: purchased Euroscreen/BioSignal Packard Inc
The experiment in a line: Radioligand binding, 5-HT2a ([3H]Ketanserin). The following applies: read-out: Binding affinity (Inhibition rate % at 10 μM) 5HT2a. As to the method:
as §1

Another data set has as its target T6, 5-HT2c (Homo sapiens, UniProt P28335).
T6 construct: purchased Euroscreen/BioSignal Packard Inc
T6 sequence (P28335 33-458): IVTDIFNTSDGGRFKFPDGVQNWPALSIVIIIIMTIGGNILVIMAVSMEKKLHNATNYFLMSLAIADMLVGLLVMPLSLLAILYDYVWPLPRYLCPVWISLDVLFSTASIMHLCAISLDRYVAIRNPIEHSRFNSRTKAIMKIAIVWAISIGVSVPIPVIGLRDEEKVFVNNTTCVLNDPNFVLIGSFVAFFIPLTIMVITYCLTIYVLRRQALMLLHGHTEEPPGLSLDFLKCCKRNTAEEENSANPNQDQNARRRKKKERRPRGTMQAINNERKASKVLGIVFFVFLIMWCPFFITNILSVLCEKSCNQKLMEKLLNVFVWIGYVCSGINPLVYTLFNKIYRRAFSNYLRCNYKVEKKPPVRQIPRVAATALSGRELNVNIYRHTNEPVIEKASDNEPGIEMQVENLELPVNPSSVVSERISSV
As to the kind of experiment: Radioligand binding, 5-HT2c ([3H]Mesulergine). The following applies: read-out: Binding affinity (Inhibition rate % at 10 μM) 5HT2c. As to the method: as §1

A further data set addresses T7, 5-HT7 (Homo sapiens, UniProt P34969).
T7 construct: purchased Euroscreen/BioSignal Packard Inc
The experiment in a line: Radioligand binding, 5-HT7 ([3H]LSD). Conditions: 10 μM. As to the method:
as §1

The subject of data set [4] is rats. The following applies: water maze, literature; cited from earlier work.
Data set [5] concerns extracellular glutamate levels. Conditions: frontal cortex and dorsal hippocampus, literature; cited from earlier work.
The conditions of data set [6]: literature; cited from earlier work.

Broadly, the inhibition is the relative decrease from the control value, in per cent.

T5 sequence (P28223 whole entry): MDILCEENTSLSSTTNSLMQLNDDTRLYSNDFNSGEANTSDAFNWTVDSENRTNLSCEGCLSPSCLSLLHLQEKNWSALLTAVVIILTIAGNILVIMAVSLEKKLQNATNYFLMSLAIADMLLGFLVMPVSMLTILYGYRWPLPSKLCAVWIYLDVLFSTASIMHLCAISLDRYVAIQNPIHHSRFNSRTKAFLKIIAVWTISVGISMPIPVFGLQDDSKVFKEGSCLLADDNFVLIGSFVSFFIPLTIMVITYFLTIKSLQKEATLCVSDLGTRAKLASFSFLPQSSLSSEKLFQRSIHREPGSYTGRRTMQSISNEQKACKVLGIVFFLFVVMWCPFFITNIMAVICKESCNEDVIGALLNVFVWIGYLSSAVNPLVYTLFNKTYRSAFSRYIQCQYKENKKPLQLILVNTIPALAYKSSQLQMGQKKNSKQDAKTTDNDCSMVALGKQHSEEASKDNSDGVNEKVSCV
T1 sequence (P14416 whole entry): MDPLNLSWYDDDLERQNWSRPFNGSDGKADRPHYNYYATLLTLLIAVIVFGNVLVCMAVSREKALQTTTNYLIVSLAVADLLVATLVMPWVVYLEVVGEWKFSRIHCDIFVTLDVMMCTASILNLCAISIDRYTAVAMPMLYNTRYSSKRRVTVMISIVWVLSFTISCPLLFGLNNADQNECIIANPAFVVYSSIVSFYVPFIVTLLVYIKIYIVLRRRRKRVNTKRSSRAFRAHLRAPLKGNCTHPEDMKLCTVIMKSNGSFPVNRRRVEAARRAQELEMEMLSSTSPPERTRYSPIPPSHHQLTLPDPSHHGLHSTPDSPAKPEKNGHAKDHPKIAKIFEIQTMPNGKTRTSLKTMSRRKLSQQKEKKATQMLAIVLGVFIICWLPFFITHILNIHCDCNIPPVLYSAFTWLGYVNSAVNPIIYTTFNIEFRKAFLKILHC
Sequence of D1 (P21728 whole entry): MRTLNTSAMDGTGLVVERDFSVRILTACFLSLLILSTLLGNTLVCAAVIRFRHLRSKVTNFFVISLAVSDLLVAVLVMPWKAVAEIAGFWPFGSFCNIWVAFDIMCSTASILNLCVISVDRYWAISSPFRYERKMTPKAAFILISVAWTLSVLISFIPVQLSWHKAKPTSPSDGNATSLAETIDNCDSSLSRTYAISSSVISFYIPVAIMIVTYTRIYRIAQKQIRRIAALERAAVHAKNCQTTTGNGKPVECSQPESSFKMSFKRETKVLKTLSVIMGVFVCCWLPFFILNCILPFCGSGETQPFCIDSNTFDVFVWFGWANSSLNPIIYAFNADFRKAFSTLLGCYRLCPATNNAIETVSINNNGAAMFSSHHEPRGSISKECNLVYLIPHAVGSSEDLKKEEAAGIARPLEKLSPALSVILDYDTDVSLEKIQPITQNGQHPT
T2 sequence (P35462 whole entry): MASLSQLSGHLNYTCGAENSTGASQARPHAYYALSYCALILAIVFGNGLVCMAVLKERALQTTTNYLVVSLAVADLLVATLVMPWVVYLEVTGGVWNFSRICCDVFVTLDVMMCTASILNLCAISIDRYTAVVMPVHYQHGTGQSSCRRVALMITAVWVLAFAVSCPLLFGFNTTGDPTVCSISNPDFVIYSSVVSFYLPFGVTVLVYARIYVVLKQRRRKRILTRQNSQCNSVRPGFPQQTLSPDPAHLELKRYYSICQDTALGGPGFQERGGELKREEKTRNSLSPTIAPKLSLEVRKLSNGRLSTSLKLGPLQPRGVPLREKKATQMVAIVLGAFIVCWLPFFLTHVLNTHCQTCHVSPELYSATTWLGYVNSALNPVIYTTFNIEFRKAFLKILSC
T7 sequence (P34969 whole entry): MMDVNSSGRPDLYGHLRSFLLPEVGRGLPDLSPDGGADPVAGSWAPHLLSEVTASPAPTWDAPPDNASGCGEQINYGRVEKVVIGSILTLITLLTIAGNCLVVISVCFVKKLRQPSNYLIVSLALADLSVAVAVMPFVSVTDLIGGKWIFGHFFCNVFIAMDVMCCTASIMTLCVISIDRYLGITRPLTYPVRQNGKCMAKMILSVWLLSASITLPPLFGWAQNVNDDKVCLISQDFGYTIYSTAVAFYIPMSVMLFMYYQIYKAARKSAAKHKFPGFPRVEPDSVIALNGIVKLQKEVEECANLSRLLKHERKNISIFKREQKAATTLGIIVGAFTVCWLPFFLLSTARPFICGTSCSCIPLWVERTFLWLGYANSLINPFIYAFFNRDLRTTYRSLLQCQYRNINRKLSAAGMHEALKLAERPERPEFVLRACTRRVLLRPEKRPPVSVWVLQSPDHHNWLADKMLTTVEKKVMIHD

With `CNc1cc(NS(=O)(=O)c2ccc(N)cc2)nc(NC)n1` [Ro 04-6790], the anticonvulsant activity result in data set [1] is listed as “possess anticonvulsant activity”. For the same compound, the food intake result in the data set with rats [2] is “decreased food intake”. For the same compound, in the data set on rats [3], the “behavior of yawning, stretching, and chewing” value is listed as “capable of inducing this same effect”.
`COc1ccc(NS(=O)(=O)c2sc3ccc(Cl)cc3c2C)cc1N1CCNCC1` [SB-271046, reference compound]: the inhibition at 10 µM worked out at 49.7% at D1; 17.3% on hD2L receptor; 66.2% at hD3 receptor; 14.2% on hD4.2 receptor; 84.2% at 5-HT1a; 60.1% at 5-HT2a. For the same compound, the inhibition at 10 µM at 5-HT2c was 64.3%. In addition, on 5-HT7, the “Binding affinity (Inhibition rate % at 10 μM) 5HT7” value is on record as 34.9%. Further, the “retention of a previously learned task” value in the data set with rats [4] is given as “significant improvement in retention of a previously learned task”. In addition, the extracellular glutamate levels result in [5] is “increased extracellular glutamate levels in frontal cortex and dorsal hippocampus by several fold”. In data set [1], the anticonvulsant activity result is given as “possess anticonvulsant activity”. Besides, the oral bioavailability in data set [6] is above 80%.
